# Experimental data: patent publication US20190209568A1, “METHOD OF PREVENTING OR TREATING HEARING LOSS” (SUPPORT-VENTURE GMBH, priority 2016, published 2019)
# System: auditory hair cells of organ of Corti (OC) explants
# Experiment: Protection of auditory hair cells from gentamicin-induced loss in organ of Corti explant culture (hair cell counting, basal turn)
# Assay type: cell-based, C57bl/6j mice
# Details: for hair cells lost / protection from loss of hair cells / loss of hair cells: 24 hours; for protection against gentamicin-induced loss of hair cells (in words): Example 1: 5 μM pioglitazone, 30 μM pamapimod, or both, with gentamicin, 24 hr in culture; for loss of hair cells: p5 mouse OC explants, basal turn
# Procedure: All animal procedures were carried out according to protocols approved by the Kantonales Veterinäramt, Basel, Switzerland. Postnatal day 5 (p5) C57bl/6j were used for the studies. Studies were performed in vitro, using organ of Corti (OC) explants from p5 animals. Animals were sacrificed and the cochleae carefully dissected to separate the organ of Corti from the spiral ganglion, stria vascularis and Reissner's membrane [Sobkowicz H M, Loftus J M, Slapnick S M. Acta Otolaryngol Suppl. 1993; 502:3-36].
# OCs were harvested and then placed in culture medium [Dulbecco's Modified Eagle Medium supplemented with 10% FCS, 25 mM HEPES and 30 U/ml penicillin (Invitrogen, Carlsbad, 20 CA, USA)] and incubated for 24 hours at 37° C. in an atmosphere of 95% O2/5% CO2. After that period, the culture medium was replaced with fresh medium containing no compound or 50 μM gentamicin alone or 50 μM gentamicin with either 5 μM pioglitazone, 30 μM pamapimod, or 5 μM pioglitazone+30 μM pamapimod, and incubated for a further 24 hours at 37° C. Ten OC explants were used for each treatment condition.
# After incubation with compounds, the OCs were fixed in 4% paraformaldehyde, washed and then stained with a fluorescein (FITC)-conjugated phalloidin to detect inner and outer hair cells. After staining, the OCs were visualized and photographed using a fluorescence microscope (Olympus FSX100). Auditory hair cells were quantified for the basal turn of each organ of Corti in 3 fields corresponding to 80 hair cells each. The average values for the three fields were then averaged for the 10 OCs used for each condition. Significant differences between treatment groups in numbers of hair cells were determined using analysis of variance (ANOVA) followed by the least significant difference (LSD) post-hoc test (Stat View 5.0). Differences associated with P values of less than 0.05 were considered to be statistically significant. All data are presented as mean±SD.
# OCs were harvested and then placed in culture medium [Dulbecco's Modified Eagle Medium supplemented with 10% FCS, 25 mM HEPES and 30 U/ml penicillin (Invitrogen, Carlsbad, 20 CA, USA)] and incubated for 24 hours at 37° C. in an atmosphere of 95% O2/5% CO2. After that period, the culture medium was replaced with fresh medium containing no compound or 100 µM gentamicin alone or 100 μM gentamicin with either 1 μM pioglitazone, 1 μM pamapimod, or 1 μM pioglitazone+1 μM pamapimod, and incubated for a further 24 hours at 37° C. The gentamicin concentration of 100 μM was determined as that concentration that leads to 50% loss of hair cells. Batch to batch variation in the activity of gentamicin requires that the concentration used for specific experiments leading to 50% hair cell loss be predefined in pilot experiments for each batch. Ten OC explants were used for each treatment condition.
Compound,"hair cells lost (Example 1, FIG. 1: 30 μM pamapimod (micronized, Dv50=3 μm) with 50 μM gentamicin)",protection against gentamicin-induced loss of hair cells (in words),"protection from loss of hair cells (Example 2, FIG. 2: 1 μM pamapimod with 100 μM gentamicin)","hair cells lost (Example 1, FIG. 1: 5 μM pioglitazone (micronized, Dv50=4 μm) with 50 μM gentamicin)","protection from loss of hair cells (Example 2, FIG. 2: 1 μM pioglitazone with 100 μM gentamicin)","loss of hair cells (Example 1, FIG. 1: 50 μM gentamicin alone)","loss of hair cells (Example 2, FIG. 2: 100 μM gentamicin alone)"
"Cn1c(=O)c(Oc2ccc(F)cc2F)cc2cnc(NC(CCO)CCO)nc21 [pamapimod, 6-(2,4-Difluorophenoxy)-2-[3-hydroxy-1-(2-hydroxyethyl)-propylamino]-8-methyl-8H-pyrido[2,3-d]pyrimidin-7-one]",approximately 20%,partially prevented the loss of hair cells,approximately 30%,,,,
CCc1ccc(CCOc2ccc(CC3SC(=O)NC3=O)cc2)nc1 (centres unmarked) [pioglitazone],,partially prevented the loss of hair cells,,approximately 20%,approximately 40%,,
gentamicin,,,,,,approximately 50%,approximately 50%
